In brackets after ≈: the same amount, converted by molar mass.
Legend:
[1] = system: piniBAC promoter; assay type: cell-based, Mycobacterium bovis BCG; conditions: 0.4-100 μM, 24 h
[2] = Electrophilic reactivity to cysteamine by 1H NMR; assay type: physicochemical; conditions: DMSO-d6, 1% acetic acid, up to 24 h
[3] = lecithin-dodecane lipid layer, 24 h, 25°C
[4] = for tolerability in PK study: 25 mg/kg PO single dose, mice; for levels in lung: CD-1, mouse, in vivo
[5] = physchem; conditions: pH 7.4
[6] = system: human red blood cells; experiment: Compound-induced hemolysis of human red blood cells; conditions: hemolyze 50% of human RBCs vs 2% Triton X-100
[7] = system: M. bovis BCG; assay type: cell-based, Mycobacterium bovis BCG
[8] = system: M. bovis BCG; assay type: cell-based, Mycobacterium bovis BCG; remark: listed apart in the source
[9] = system: Mtb H37Rv; design: species or system BALB/c mice; conditions: mouse, in vivo
[10] = 100 mg/kg po daily over 4 weeks (24 doses)
[11] = system: M. bovis BCG; experiment: microbe, parasite or virus in culture; assay type: cell-based; conditions: Mycobacterium tuberculosis variant bovis BCG, read-out: MIC MIC50

SMILES: CCCCCCCCn1cc(CN2CCC3(CC2)OCCCS3)c2ccc(OC)cc21 [Compound 13]
- induction of piniBAC promoter activity [1]: increased the transcriptional activity of the piniBAC in a concentration dependent manner
- electrophilic reactivity to cysteamine [2]: limited electrophilic reactivity
- PAMPA Effective Permeability (Pe) [3]: Cannot be determined
- tolerability in PK study [4]: did not cause obvious adverse effects
- solubility [5]: 30.9 ± 1.3 µM (≈ 13.7 µg/mL)

SMILES: CCCCCCCCn1cc(CN2CCC3(CC2)OC[C@@H](C)O3)c2ccc(OC)cc21 [Compound 8]
- HC50 [6]: 75 µM

SMILES: CCCCCCCCn1cc(CN2CCCCCC2)c2c(F)cccc21 [Compound 71, 3-(azepan-1-ylmethyl)-4-fluoro-1-octyl-1H indole]
- membrane potential (DiOC2 red/green ratio) [7]: no depolarization at these early time points

SMILES: CCCCCCCCn1cc(CN2CCC3(CC2)OCCO3)c2ccc(OC)cc21 [Compound 1, 8-[(6-methoxy-1-octyl-1H-indolyl-3-yl)methyl]-1,4-dioxa-8-azaspiro[4,5]decane]
- kill of mycobacterial cultures by 48 h (time-kill) [8]: still viable at 48h
- induction of piniBAC promoter activity [1]: broadly similar to that of isoniazid
- bacterial loads in lungs and spleen (CFU) [9]: only reduced the splenic bacterial load
- PAMPA Effective Permeability (Pe) [3]: Cannot be determined
- levels in lung [4]: ~ 1 μM
- adverse effects during treatment period [10]: no adverse effects were detected
- solubility [5]: 23.9 ± 0.8 µM (≈ 9.91 µg/mL)
- HC50 [6]: 75 µM

SMILES: CCCCCCCCn1cc(CN2CCC3(CC2)OCCCO3)c2ccc(OC(C)C)cc21 [Compound 57g]
- MIC50 [11]: 0.5 to 0.7 µM (≈ 0.228 to 0.32 µg/mL)

SMILES: CCCCCCCCn1cc(CN2CCC3(CC2)OCCCO3)c2ccc(OC)cc21 [Compound 12]
- induction of piniBAC promoter activity [1]: increased the transcriptional activity of the piniBAC in a concentration dependent manner
- electrophilic reactivity to cysteamine [2]: limited electrophilic reactivity
- bacterial loads in lungs and spleen (CFU) [9]: significantly inhibited bacterial growth in both organs
- PAMPA Effective Permeability (Pe) [3]: Cannot be determined
- tolerability in PK study [4]: did not cause obvious adverse effects
- Lung concentration at 5 h ([4]; 25 mg/kg PO, CD1 mice): 1408 ng/g
- levels in lung [4]: ~ 3 μM
- adverse effects during treatment period [10]: no adverse effects were detected
- HC50 [6]: 64 µM

SMILES: CCCCCCCCn1cc(CN2CCC3(CC2)OCCCO3)c2ccc(C#N)cc21 [Compound 57e]
- MIC50 [11]: 0.5 to 0.7 µM (≈ 0.212 to 0.297 µg/mL)

SMILES: CCCCCCCCn1cc(CN2CCC3(CC2)OC[C@H](C)O3)c2ccc(OC)cc21 [Compound 7]
- HC50 [6]: 51 µM

SMILES: CCCCCCCCn1cc(CN2CCC3(CC2)OCCCO3)c2ccc(OCCC)cc21 [Compound 57f]
- MIC50 [11]: 0.5 to 0.7 µM (≈ 0.228 to 0.32 µg/mL)

From article PMC6043372 (Journal of medicinal chemistry, 2018)
